Measured values: US20190307843A1, “SINGLE DOSE METHODS FOR PREVENTING AND TREATING FUNGAL INFECTIONS” (Cidara Therapeutics, Inc., priority 2016, published 2019)
Where two headings read alike, the source gives them in different places. Starred links: 1 amine or outer side, 2 acyl side, 3 side chain; linkers in the order of their positions; H or OH if unused. Positions of bridges follow the written chain, without caps; N, C: chain ends. Non-standard residues stand in square brackets, D forms with d. Residues, ends and D or L forms follow the SMILES beside them. *: point of attachment. Orn(4R-OH,5R-OCH2CH2NMe3+) = C[N+](C)(C)CCO[C@@H](N[*:3])[C@H](O)C[C@H](N[*:1])C(=O)[*:2]; pTerphenylCO(4''-OnC5H11) = CCCCCOc1ccc(-c2ccc(-c3ccc(C(=O)*)cc3)cc2)cc1; hTyr(3S-OH,4S-OH) = N[C@H](C(=O)O)[C@H](O)[C@@H](O)c1ccc(O)cc1; Pro(3S-OH,4S-Me) = C[C@H]1CN[C@H](C(=O)O)[C@H]1O; Hyp = O=C(O)[C@@H]1C[C@@H](O)CN1

Columns and labels:
Candida auris strains = test: Candida auris antifungal susceptibility testing (CLSI M27-A3), 38 strains; assay type: cell-based; conditions: for MIC: Candidozyma auris, 48 h, read-out: MIC
[1] = test system: C. albicans SC-5314 biofilms; test: Adhesion phase biofilms (prevention), XTT metabolic activity and CSLM; assay type: cell-based, Candida albicans
A. fumigatus AF293 [2] = test: Pulmonary aspergillosis, prophylaxis, neutropenic ICR mice (Examples 17, 18), survival; assay type: in vivo, Aspergillus fumigatus
Protocol: Intranasal infection with A. fumigatus AF293 (10^5 CFU/mouse) on Day 0. Prophylaxis CD101 as a single dose (IP; 5, 10, 20 mg/kg) or posaconazole (PO; 2 and 10 mg/kg) 1 day prior to infection. Survival monitored for 10 days.
Intranasal challenge with A. fumigatus AF293 (10^5 CFU/mouse) was initiated on Day 0 and prophylaxis with CD101 as a single dose (IP; 5, 10, 20 mg/kg) or posaconazole (PO; 2 and 10 mg/kg) was started 1 day prior to infection. Survival was monitored for 10 days.

A. fumigatus AF293 [3] = test: Murine model of pulmonary aspergillosis (Example 19), terminal lung burden; assay type: in vivo, Aspergillus fumigatus
Protocol: A secondary endpoint for the study was terminal lung tissue burden. Immediately following confirmation of death, carcasses were frozen at −20° C. prior to tissue dissection and processing. The frozen carcasses were thawed at room temperature, the lungs removed and placed into pre-weighed bead-beating tubes containing 2 mL of PBS and subjected to mechanical disruption. Organ homogenates were diluted further in PBS and quantitatively cultured for A. fumigatus onto SABC and incubated at 30° C. for 24-48 hours.
2. Lung tissue burden data were analysed using the non-parametric Kruskal-Wallis test and if this was statistically significant all pairwise comparisons were analyzed (Conover-Inman).

A. fumigatus AF293 [4] = test: Murine model of pulmonary aspergillosis (Example 19), survival; conditions: for survival time post infection, range / Mean Survival / Median Survival: 1 day pre-infection; for mice surviving to the end of the study: 6/treatment group, 10 days
[5] = CD101 20 mg/kg IP once, 20 mg/kg
[6] = CD101 60 mg/kg IP once, 60 mg/kg

## CCCCCOc1ccc(-c2ccc(-c3ccc(C(=O)N[C@H]4C[C@@H](O)[C@@H](OCC[N+](C)(C)C)NC(=O)[C@@H]5[C@@H](O)[C@@H](C)CN5C(=O)[C@H]([C@@H](C)O)NC(=O)[C@H]([C@H](O)[C@@H](O)c5ccc(O)cc5)NC(=O)[C@@H]5C[C@@H](O)CN5C(=O)[C@H]([C@@H](C)O)NC4=O)cc3)cc2)cc1 [CD101] ({pTerphenylCO(4''-OnC5H11)}-[Orn(4R-OH,5R-OCH2CH2NMe3+)]T[Hyp][hTyr(3S-OH,4S-OH)]T[Pro(3S-OH,4S-Me)]; lactam 1-C)
Candida auris strains; strain 11 VCPI 480/P/13
  MIC: 0.25 µg/mL
Candida auris strains; strain 12 VCPI 482/P/13
  MIC: 0.25 µg/mL
Candida auris strains; strain 13 VCPI 483/P/13
  MIC: 0.25 µg/mL
Candida auris strains; strain 14 VCPI 1130/P/13
  MIC: 0.25 µg/mL
Candida auris strains; strain 15 VCPI 1132/P/13
  MIC: 0.25 µg/mL
Candida auris strains; strain 16 VCPI 1133/P/13
  MIC: > 16 µg/mL
Candida auris strains; strain 17 VCPI 105/P/14
  MIC: 0.25 µg/mL
Candida auris strains; strain 18 VCPI 107/P/14
  MIC: 0.125 µg/mL
Candida auris strains; strain 19 VCPI 510/P/14
  MIC: 0.25 µg/mL
Candida auris strains; strain 20 VCPI 511/P/14
  MIC: 0.25 µg/mL
Candida auris strains; strain 21 VCPI 512/P/14
  MIC: 0.25 µg/mL
Candida auris strains; strain 22 VCPI 513/P/14
  MIC: 0.5 µg/mL
Candida auris strains; strain 23 VCPI 514/P/14
  MIC: 0.5 µg/mL
Candida auris strains; strain 24 VCPI 250/P/14
  MIC: 0.25 µg/mL
Candida auris strains; strain 25 VCPI 265/P/14
  MIC: > 16 µg/mL
Candida auris strains; strain 26 VCPI 266/P/14
  MIC: 0.25 µg/mL
Candida auris strains; strain 27 VCPI 462/P/14
  MIC: > 16 µg/mL
Candida auris strains; strain 28 VCPI 463/P/14
  MIC: 0.125 µg/mL
Candida auris strains; strain 29 VCPI 467/P/14
  MIC: 0.25 µg/mL
Candida auris strains; strain 30 VCPI 471a/P/14
  MIC: > 16 µg/mL
Candida auris strains; strain 31 VCPI 478/P/14
  MIC: 1 µg/mL
Candida auris strains; strain 32 VCPI 518/P/14
  MIC: 0.5 µg/mL
Candida auris strains; strain 33 VCPI 550/P/14
  MIC: 1 µg/mL
Candida auris strains; strain 34 VCPI 714/P/14
  MIC: 0.25 µg/mL
Candida auris strains; strain 35 VCPI 717/P/14
  MIC: 0.25 µg/mL
Candida auris strains; strain 36 VCPI 1060/P/14
  MIC: 0.25 µg/mL
Candida auris strains; strain 37 VCPI 74/P/15
  MIC: 0.25 µg/mL
Candida auris strains; strain 38 VCPI 213/P/15
  MIC: 0.25 µg/mL
Candida auris strains; of 38 C. auris isolates
  number of resistant isolates: 4
[1]; CD101 0.25 and 1 μg/ml, 24 h, vs untreated
  biofilm formation by metabolic activity (XTT): formed significantly less biofilms compared to untreated C. albicans
[1]; exposure to CD101, untreated control 36 μm
  thickness of biofilms: 4 μm
A. fumigatus AF293 [2]; CD101 20 mg/kg IP single dose 1 day prior to infection, 10 days
  survival rate: 30%
A. fumigatus AF293 [2]; single CD101 dose (IP; 5, 10, 20 mg/kg) one day prior to infection
  survival: dose-dependent increase in survival rate
A. fumigatus AF293 [3]; CD101 20 mg/kg IP Day −1
  Group Geometric mean (lung burden): 4.37 × 10^3 CFU/g
  Log10 Group Geometric mean (lung burden): 3.64 CFU/g
  Log10 reduction from vehicle control: 0.53 CFU/g
A. fumigatus AF293 [3]; CD101 60 mg/kg IP Day −1
  Group Geometric mean (lung burden): 1.38 × 10^4 CFU/g
  Log10 Group Geometric mean (lung burden): 4.14 CFU/g
  Log10 reduction from vehicle control: 0.03 CFU/g
A. fumigatus AF293 [4]; CD101 20 mg/kg IP once
  survival time post infection, range: 70 to 240 h
A. fumigatus AF293 [4]; [5]
  Mean Survival: 130.4 h
  Median Survival: 74.7 h
A. fumigatus AF293 [4]; CD101 20 mg/kg IP
  mice surviving to the end of the study: Two mice survived to the end of the study
A. fumigatus AF293 [4]; CD101 60 mg/kg IP once
  survival time post infection, range: 73-240
A. fumigatus AF293 [4]; [6]
  Mean Survival: 122.7 h
  Median Survival: 88.7 h
A. fumigatus AF293 [4]; CD101 60 mg/kg IP
  mice surviving to the end of the study: A single mouse survived to the end of the study
A. fumigatus AF293 [4]; CD101 20 and 60 mg/kg once one day pre-infection
  survival: slight increase in survival
